{"source": "patent US6353022B1", "about": "“Compositions containing hydroxyeicosatetraenoic acid derivatives and methods of use in treating dry eye disorders” (Alcon Universal Ltd., priority 1999, dated 2002)", "tested_on": "corneal injury induced by dry eye conditions", "assay": "in vivo desiccation model of dry eye (methylene blue corneal staining, absorbance at 660 nm)", "parameters": "species or system rabbit", "details": "15(S)-HETE 1 μM (0.000034% w/v), 50 μL topical O.D., 4-hour desiccation", "description": "A composition of the present invention (Example 1, with the compound of formula (III) being 15(S)-HETE) was compared to an analogous composition without ethanol, an analogous composition without 15(S)-HETE, and analogous compositions with approximately one-half, one-tenth, and twice the amount of ethanol, respectively, in an in vivo desiccation model of dry eye.\nBriefly, the assay was performed by first anesthetizing the animals with ketamine/xylazine/glycopyrrolate. The O.S. eye was lubricated with DuraTears® and remained taped shut throughout the experiment. The O.D. eye was then dosed with 50 μL of test composition (Example 1) or 50 μL of the same composition without ethanol and the eye taped shut for 10 minutes. The tape was then removed, the eyelids opened and a speculum was inserted into the eye. The eye was held open with the speculum for a period of 4 hours. During this time, the animals were monitored every 15 minutes and supplemental injections of ketamine/xylazine (at half the initial dose/injection) were administered as needed to maintain anesthesia. At the end of the 4-hour period, 2 sutures were placed in the upper eyelid and 1 suture was placed in the lower eyelid. A corneal/conjunctival cup was formed by using the sutures to lift the eyelids upward and the sutures taped to a stand. 1 mL methylene blue (1% solution in water) was added to the conjunctival cup and the cornea was stained with the solution for 5 minutes. The eye was then washed with 200 mL of a balanced salt solution. Corneal thickness was determined by non-invasive pachymetry. Three readings were taken for each animal. Corneal staining score was obtained by visualizing the cornea with a slit-lamp and determining the percentage of the cornea that was stained with methylene blue. A photograph was taken using the slit-lamp machine. The rabbit was then euthanized immediately by intravenous injection of Sleepaway® solution and the eye was excised. The cornea was isolated and an 8 mm punch of the central cornea collected. This corneal punch was placed in a small glass vial containing 2 mL acetone/saturated sodium sulfate (7:3, vol/vol). Absorbance of the extracted solution was measured at 660 nm with a spectrophotometer.\nThe naïve control animals were anesthetized with ketamine/xylazine/glycopyrrolate and the O.S. eye lubricated and taped shut. Sutures were immediately placed in the O.D. eyelids. The corneal cup was formed and the cornea was stained with methylene blue, washed with a balanced salt solution and collected, as described above. The data were converted to “percent protection” by subtracting from 1, the quotient of the test sample absorbances divided by the average of control sample absorbance, and multiplying by 100. The results are contained in Table 1 and illustrated in FIGS. 1 and 2: […]"}
{"smiles": "CCCCC[C@H](O)/C=C/C=C\\C/C=C\\C/C=C\\CCCC(=O)O", "note": "[15(S)-HETE, 5,8,11,13-Eicosatetraenoic acid, 15-hydroxy-, [15S-(5Z,8Z,11Z,13E)]-]", "values": [{"measurement": "% Protection", "setting": "Ethanol 0.0 % (w/v)", "value": 13, "unit": "%"}, {"measurement": "% Protection", "setting": "Ethanol 0.00505 % (w/v)", "value": 2, "unit": "%"}, {"measurement": "% Protection", "setting": "Ethanol 0.0252 % (w/v), p < 0.05 versus control", "value": 42, "unit": "%"}, {"measurement": "% Protection", "setting": "Ethanol 0.0505 % (w/v) (composition of Example 1), p < 0.05 versus control", "value": 60, "unit": "%"}, {"measurement": "% Protection", "setting": "Ethanol 0.101 % (w/v)", "value": 31, "unit": "%"}]}
